{
  "source": "patent US20040192782A1",
  "about": "“Erucamide compounds for the treatment and prevention to disturbances of the secretory system” (priority 2001, published 2004)",
  "key": {"[1]": {"system": "cholera toxin induced diarrhea in the jejunum of the rat", "settings": "in vivo"}, "CSF production": {"system": "CSF production", "settings": "in vivo; cited from earlier work"}, "[2]": {"system": "transport of Na+ from plasma to CSF", "assay": "CSF production measured as 22Na+ transport from plasma to CSF after intraventricular administration", "assay_type": "in vivo, rat", "settings": "5 μl/min, 300 g rats under halothan, 22Na+ i.v. 30 min after erucamide", "from_the_text": "Effect of erucamide and analogues thereof on CSF production Production of CSF depends mainly on active transport of Na^+ from the blood to the brain ventricles (Davson and Segal, 1970). Water then follows the net transport of Na^+ and other ions to maintain osmotic balance. Therefore, formation of CSF is directly proportional to Na^+ transport into the ventricular cavities. A simple technique to measure CSF production is to determine the turnover of plasma Na^+ into CSF. The method involves maintenance of a steady state level of ^22Na^+ in plasma and sampling ^22Na^+ in the CSF at various times after injection of the isotope (Knuckey et al., 1991). […] A 2-3 mm long micro-dialysis tubing, connecting 2 polyethylene tubings, was permanently placed in the cisterna magna for sampling of CSF. […] Blood samples were taken from the tail veins at 15, 30, 90 and 180 min. Blood and CSF samples were analyzed for radioactivity. Intraventricularly administered erucamide reduced by over 40% the transport of Na^+ from plasma to CSF."}},
  "data": [
    {"smiles": "CCCCC/C=C\\C/C=C\\C/C=C\\C/C=C\\CCCC(=O)O", "note": "[Arachidonic acid, reference compound]", "values": [
      {"measurement": "Antisecretory activity relative to erucamide activity", "setting": "[1]", "result": "less than 20 % of the erucamide activity"}
    ]},
    {"smiles": "CCCCCCCC/C=C\\CCCCCCCCCCCC(=O)O", "note": "[Erucic acid, cis-13-docosenoic acid, reference compound]", "values": [
      {"measurement": "Antisecretory activity in the rat intestine model (in words)", "setting": "[1]", "result": "does not display any antisecretory activity"}
    ]},
    {"smiles": "CC(=O)Nc1nnc(S(N)(=O)=O)s1", "note": "[aztzoiamide]", "values": [
      {"measurement": "Inhibition of CSF production", "setting": "CSF production", "result": 50, "unit": "%"}
    ]},
    {"smiles": "CCCCCCCC/C=C\\CCCCCCCCCCCC(N)=O", "note": "[erucamide, cis-13-docosenoamide]", "values": [
      {"measurement": "Reduction of transport of Na+ from plasma to CSF", "setting": "[2]", "result": "over 40%"},
      {"measurement": "Dose giving maximal antisecretory activity, expressed as concentration", "setting": "[1]", "result": 0.3, "unit": "pM"},
      {"measurement": "Dose giving maximal antisecretory activity", "setting": "[1]; iv", "result": "1×10^−10 g/kg/dose"},
      {"measurement": "Maximal antisecretory activity (inhibition of cholera toxin induced diarrhea)", "setting": "[1]; iv", "result": 75, "unit": "% inhibition"}
    ]}
  ]
}
